Test results as given in patent US9045556B2, “Therapeutic agent for cancer” (NEC Corporation, priority 2007, dated 2015).

Tested on: EG7 cells

In the case of `CC[C@H](C)[C@H](NC(=O)[C@@H](NC(=O)[C@@H](N)CO)[C@@H](C)CC)C(=O)N[C@@H](CC(N)=O)C(=O)N[C@@H](Cc1ccccc1)C(=O)N[C@@H](CCC(=O)O)C(=O)N[C@@H](CCCCN)C(=O)N[C@@H](CC(C)C)C(=O)O` [OVA-I peptide], the “cytotoxic activity of splenocytes against EG7” value was “only low cytotoxic activity was induced”.
